# Key:
# papain-induced arthritis = experiment: Papain-induced unilateral arthritis model, intramuscular administration (volume of synovial fluid); assay type: in vivo, Japanese white rabbits (female); conditions: 0.5 mg/kg intramuscular, unilateral model; 10 rabbits per group
# Protocol: The anti-inflammatory effect of the keratan sulfate oligosaccharide with rabbits of the papain-induced arthritis model was examined using the volume of synovial fluid as an indication.
# Seven days after the injection, the blood was drawn from the auricular artery, and plasma containing heparin was separated. After drawing the blood, the rabbits were anatomized and the both knee joint were separated. The articular cavity was washed with 2 ml of saline three times to recover the synovial fluid. The calcium concentrations in the plasma and the recovered synovial fluid were determined, and the volume of synovial fluid was calculated from the following formula.
# Volume of Synovial Fluid (ul/articulation)=Amount of Calcium in Recovered
# Synovial Fluid (μg/articulation)/Concentration of Calcium in Plasma
# Into the articular cavity of left joint of Japanese white rabbits (female) of 3 kg weight, 150 μl of the saline solution of papain (1%) was injected, and the right joint was not treated to prepare the unilateral arthritis model. One day after injecting papain, 150 μl of the PBS solution of the purified keratan sulfate tetrasaccharide (I) (2%, 1%, and 0.5% solution; 1.0 mg/kg, 0.5 mg/kg, and 0.25 mg/kg, respectively) which was prepared in Example 1 was injected into the hip muscle of the left side (hereinafter referred to as "the keratan sulfate tetrasaccharide (I) administered group"). As the control, 150 μl of PBS was injected to the arthritis model instead of the PBS solution of the keratan sulfate tetrasaccharide (I) and hereinafter these rabbits are referred to as "the control group". And the normal rabbits not subjected to the papain injection (hereinafter referred to as "the normal group") were also examined in the same manner hereinafter. Seven days after the injection, the volume of synovial fluid was calculated in the same manner as in (1-1).
# The examination was performed in the same manner as in (1-3) except for using 150 μl of the PBS solution of the purified keratan sulfate tetrasaccharide (I), the keratan sulfate pentasaccharide (II), and the keratan sulfate disaccharide (III) (1% solution; 0.5 mg/kg) which were prepared in Example 1. In the figure, *, **, and *** represent that they have the significant difference with p<0.05, p<0.01, and p<0.001, respectively. And in each group, 10 rabbits were used for the examination.
# allergic conjunctivitis = experiment: TDI-induced allergic conjunctivitis model, eye dropping; assay type: in vivo, female Hartley guinea pigs; conditions: 6.0 mg/ml eye drop, comparison of oligosaccharides
# Protocol: A variety of the keratan sulfate oligosaccharide was dropped in the eyes of the guinea pigs subjected to the induction of allergic conjunctivitis to examine the effect thereof.
# Toluene diisocyanate (hereinafter referred to as TDI) was diluted with ethyl acetate to a concentration of 10%. To the bilateral vestibule of noses of 10 female Hartley guinea pigs of from about 900 to 1,000 g weight, the 10% TDI (10 μl/animal) obtained above was applied once a day for five days to prepare the TDI sensitization models. The PBS solution of the purified keratan sulfate tetrasaccharide (I) ([…]) which was prepared in Example 1 was dropped in the left eyes of the TDI sensitization models, while PBS was dropped in the right eyes as the control. The dose of dropping was one drop (48+4.6 μl (S.D.)) each from the eye dropper. After 10 minutes, 6.5 μl of 10% TDI was dropped to the both eyes to induce conjunctivitis. After five minutes standing, furthermore, the PBS solution of the keratan sulfate tetrasaccharide (I) ([…]) was dropped in the left eyes, and PBS was dropped in the right eyes. After 15 minutes, observation of the both eyes were carried out. The degree of conjunctivitis was evaluated regarding three items of hyperemia, edema and lacrimation into four grades such as point 0, +1, +2 and +3. In the figure, * represents that it has the significant difference with p<0.05 (wherein "p" means a level of significance by the .chi.^2 test).
# The PBS solution of the purified keratan sulfate disaccharide (III), the keratan sulfate tetrasaccharide (I), and the keratan sulfate pentasaccharide (II) (6.0 mg/ml, respectively)which were prepared in Example 1 described above as the test substances were dropped, respectively, in the left eyes of the TDI sensitization models of 10 animals a group each which were prepared in the same manner as in (1) described above, and PBS was dropped in the right eyes as the control. The degree of conjunctivitis was evaluated in the same manner as in (1) described above. In the figure, * represents that it has the significant difference with p<0.05 (wherein "p" means a level of significance by the .chi.^2 test).
# The PBS solution containing the purified keratan sulfate tetrasaccharide (I) which was prepared in Example 1 described above, at varieties of concentrations (6 mg/ml, 3 mg/ml, 1.5 mg/ml or 0.75 mg/ml) as the test substance, were dropped, respectively, in the left eyes of the TDI sensitization models of 10 animals a group each which were prepared in the same manner as in (1) described above, and PBS was dropped in the right eyes as the control. The degree of conjunctivitis was evaluated in the same manner as in (1) described above. In the figure, * represents that it has the significant differnce with p<0.05 (wherein "p" means a level of significance by the .chi.^2 test).
# [1] = system: neutrophile of guinea pig; experiment: Inhibition of active oxygen (O2^-) generation in FMLP-stimulated neutrophile; assay type: cell-based, female Hartley guinea pigs
# Protocol: To female Hartley guinea pigs of five weeks old (purchased from Japan SLC), 20 ml of the 0.2% aqueous solution of glycogen (Type II; Oyster; Sigma) dissolved in saline which was previously sterilized with autoclave, was intraperitoneally administered. The guinea pigs were sacrificed by bleeding 16 hours after the administration, and 20 ml of the saline containing heparin at a concentration of 10 U/ml was intraperitoneally injected to recover the peritoneal exudate. Hereinafter all the operations were carried out under ice-water cooling condition except for incubation. The recovered exudate was centrifuged at 1,000 rpm for 10 minutes, the precipitate obtained was hemolyzed with purified water for 30 seconds, and returned into isotonicity with the Hanks' solution at double the concentration (not containing phenol red; Nissui Seiyaku), and further it was centrifuged at 1,000 rpm for 10 minutes. The precipitate obtained was suspended in the Hanks' solution and centrifuged and the operations were repeated once more to give the neutrophile.
# The collected neutrophile of the guinea pigs was suspended in the Hanks' solution, the number of leukocyte in the suspension was determined by a cytometer (System K-2000; Toa Iyo Denshi Co.), and the suspension diluted with the Hanks' solution to 2×10^6 cells/ml was used in the determination as the cell suspension. After mixing 1 ml of the cell suspension and 10 μl of the purified keratan sulfate oligosaccharide (keratan sulfate tetrasaccharide (I), the keratan sulfate pentasaccharide (II), or the keratan sulfate disaccharide (III)) prepared in Example 1 described above, and the mixture was preincubated at 37° C. for an hour. […]
# The supernatant obtained by the centrifugation was separated and the absorbance thereof was determined at 550 nm to estimate the quantity of reducing cytochrome c per 2×10^6 cells after the 10 minutes incubation. The quantity of reducing cytochrome c increases with the generation of active oxygen (O2^-). […]
substance,measurement,setting,value
NeuAc~Galβ1-4GlcNAc(6S)β1-3Gal(6S)β1-4GlcNAc(6S) [keratan sulfate pentasaccharide (II)],"quantity of synovial fluid (FIG. 5, result in words)",papain-induced arthritis,significantly less than that in the control group
same,"degree of conjunctivitis: hyperemia, edema and lacrimation (FIG. 12)",allergic conjunctivitis,tended to show inhibition in all the items
same,inhibitory function for generation of active oxygen (O2^-) (FIG. 10),[1],slightly observed

# Reference: patent publication US5939403A, “Keratan sulfate oligosaccharide fraction and pharmaceutical containing the same” (Seikagaku Corporation, priority 1994, dated 1999)
